{"source": "ChEMBL document CHEMBL4831500", "about": "“Discovery of first-in-class imidazothiazole-based potent and selective ErbB4 (HER4) kinase inhibitors” (Eur J Med Chem, 2021)", "key": {"[1]": {"system": "Panel NCI-60 (60 carcinoma cell lines)", "test": "Growth inhibition of human panel NCI-60 (60 carcinoma cells) assessed as growth percent at 10 uM measured after 48 hrs by SRB assay relative to control", "type": "functional", "details": "read-out: Activity"}, "[2]": {"system": "NCI-H522", "test": "Antiproliferative activity against human NCI-H522 cells assessed as cell growth inhibition measured after 48 hrs by SRB assay", "type": "functional, cell-based", "details": "NCI-H522, 48 h"}, "[3]": {"system": "SK-MEL-5", "test": "Antiproliferative activity against human SK-MEL-5 cells assessed as cell growth inhibition measured after 48 hrs by SRB assay", "type": "functional, cell-based", "details": "SK-MEL-5, 48 h"}, "[4]": {"system": "MOLT-4", "test": "Antiproliferative activity against human MOLT-4 cells assessed as cell growth inhibition measured after 48 hrs by SRB assay", "type": "functional, cell-based", "details": "MOLT-4, 48 h"}, "[5]": {"system": "HCC 2998", "test": "Antiproliferative activity against human HCC 2998 cells assessed as cell growth inhibition measured after 48 hrs by SRB assay", "type": "functional, cell-based", "details": "HCC 2998, 48 h"}, "[6]": {"system": "OVCAR-4", "test": "Antiproliferative activity against human OVCAR-4 cells assessed as cell growth inhibition measured after 48 hrs by SRB assay", "type": "functional, cell-based", "details": "OVCAR-4, 48 h"}, "[7]": {"system": "UO-31", "test": "Antiproliferative activity against human UO-31 cells assessed as cell growth inhibition measured after 48 hrs by SRB assay", "type": "functional, cell-based", "details": "UO-31, 48 h"}, "[8]": {"system": "DU-145", "test": "Antiproliferative activity against human DU-145 cells assessed as cell growth inhibition measured after 48 hrs by SRB assay", "type": "functional, cell-based", "details": "DU-145, 48 h"}, "[9]": {"system": "MDA-MB-468", "test": "Antiproliferative activity against human MDA-MB-468 cells assessed as cell growth inhibition measured after 48 hrs by SRB assay", "type": "functional, cell-based", "details": "MDA-MB-468, 48 h"}, "[10]": {"system": "HL-60(TB)", "test": "Antiproliferative activity against human HL-60(TB) cells assessed as cell growth inhibition measured after 48 hrs by SRB assay", "type": "functional, cell-based", "details": "HL-60, 48 h"}, "[11]": {"system": "NCI-H322M", "test": "Antiproliferative activity against human NCI-H322M cells assessed as cell growth inhibition measured after 48 hrs by SRB assay", "type": "functional, cell-based"}, "[12]": {"system": "SNB-75", "test": "Antiproliferative activity against human SNB-75 cells assessed as cell growth inhibition measured after 48 hrs by SRB assay", "type": "functional, cell-based", "details": "SNB-75, 48 h"}, "[13]": {"system": "U-251", "test": "Antiproliferative activity against human U-251 cells assessed as cell growth inhibition measured after 48 hrs by SRB assay", "type": "functional, cell-based", "details": "U-251, 48 h"}}, "data": [{"smiles": "CS(=O)(=O)c1nccc(-c2c(-c3ccc(OCCc4ccccc4)cc3)nc3sccn23)n1", "values": [{"measurement": "growth at 10 µM", "setting": "[1]", "result": 91.2, "unit": "%"}]}, {"smiles": "CS(=O)(=O)c1cccc(-c2c(-c3cccc(OCCc4ccc(F)cc4)c3)nc3sccn23)c1", "values": [{"measurement": "growth at 10 µM", "setting": "[1]", "result": 82.9, "unit": "%"}]}, {"smiles": "c1ccc(CCOc2cccc(-c3nc4sccn4c3-c3ccncn3)c2)cc1", "values": [{"measurement": "growth at 10 µM", "setting": "[1]", "result": 96.4, "unit": "%"}]}, {"smiles": "CS(=O)(=O)c1nccc(-c2c(-c3cccc(OCCN4CCOCC4)c3)nc3sccn23)n1", "values": [{"measurement": "growth at 10 µM", "setting": "[1]", "result": 83.5, "unit": "%"}]}, {"smiles": "CC(C)N(CCOc1ccc(-c2nc3sccn3c2-c2ccnc(S(C)(=O)=O)n2)cc1)C(C)C", "values": [{"measurement": "growth at 10 µM", "setting": "[1]", "result": 81.1, "unit": "%"}]}, {"smiles": "CS(=O)(=O)c1nccc(-c2c(-c3cccc(OS(N)(=O)=O)c3)nc3sccn23)n1", "values": [{"measurement": "growth at 10 µM", "setting": "[1]", "result": 97.9, "unit": "%"}]}, {"smiles": "Fc1ccc(COc2cccc(-c3nc4sccn4c3-c3ccccc3)c2)cc1", "values": [{"measurement": "growth at 10 µM", "setting": "[1]", "result": 97.8, "unit": "%"}]}, {"smiles": "CNC(=O)c1cc(Oc2ccc(NC(=O)Nc3ccc(Cl)c(C(F)(F)F)c3)cc2)ccn1", "note": "[SORAFENIB]", "values": [{"measurement": "IC50", "setting": "[2]", "result": 5.01, "unit": "µM"}, {"measurement": "IC50", "setting": "[3]", "result": 2.51, "unit": "µM"}]}, {"smiles": "CS(=O)(=O)c1cccc(-c2c(-c3cccc(OCCc4ccccc4)c3)nc3sccn23)c1", "values": [{"measurement": "growth at 10 µM", "setting": "[1]", "result": 95.3, "unit": "%"}]}, {"smiles": "C=CC(=O)N1CCC[C@@H](n2nc(-c3ccc(Oc4ccccc4)cc3)c3c(N)ncnc32)C1", "note": "[IBRUTINIB]", "values": [{"measurement": "IC50", "setting": "[4]", "result": 3.98, "unit": "µM"}, {"measurement": "IC50", "setting": "[2]", "result": 0.06, "unit": "µM"}, {"measurement": "IC50", "setting": "[5]", "result": 15.8, "unit": "µM"}, {"measurement": "IC50", "setting": "[3]", "result": 6.31, "unit": "µM"}, {"measurement": "IC50", "setting": "[6]", "result": 7.94, "unit": "µM"}, {"measurement": "IC50", "setting": "[7]", "result": 1.26, "unit": "µM"}, {"measurement": "IC50", "setting": "[8]", "result": 2, "unit": "µM"}, {"measurement": "IC50", "setting": "[9]", "result": 0.03, "unit": "µM"}, {"measurement": "IC50", "setting": "[10]", "result": 19.9, "unit": "µM"}, {"measurement": "IC50", "setting": "[11]", "result": 0.1, "unit": "µM"}, {"measurement": "IC50", "setting": "[12]", "result": 3.16, "unit": "µM"}, {"measurement": "IC50", "setting": "[13]", "result": 6.31, "unit": "µM"}]}, {"smiles": "CN(C)CCOc1ccc(-c2nc3sccn3c2-c2ccnc(S(C)(=O)=O)n2)cc1", "values": [{"measurement": "growth at 10 µM", "setting": "[1]", "result": 102, "unit": "%"}]}, {"smiles": "COc1ccc(-c2nc3sccn3c2-c2ccnc(S(C)(=O)=O)n2)cc1", "values": [{"measurement": "growth at 10 µM", "setting": "[1]", "result": 73, "unit": "%"}]}, {"smiles": "Fc1ccc(COc2cccc(-c3nc4sccn4c3-c3ccncn3)c2)cc1", "values": [{"measurement": "growth at 10 µM", "setting": "[1]", "result": 76.3, "unit": "%"}]}, {"smiles": "CS(=O)(=O)c1nccc(-c2c(-c3cccc(OCCN4CCCC4)c3)nc3sccn23)n1", "values": [{"measurement": "growth at 10 µM", "setting": "[1]", "result": 94.2, "unit": "%"}]}, {"smiles": "Fc1ccc(CCOc2cccc(-c3nc4sccn4c3-c3ccccc3)c2)cc1", "values": [{"measurement": "growth at 10 µM", "setting": "[1]", "result": 87.5, "unit": "%"}]}, {"smiles": "CS(=O)(=O)c1nccc(-c2c(-c3cccc(O)c3)nc3occn23)n1", "values": [{"measurement": "growth at 10 µM", "setting": "[1]", "result": 102, "unit": "%"}]}, {"smiles": "O=C(COc1cccc(-c2nc3sccn3c2-c2ccncn2)c1)c1ccccc1", "values": [{"measurement": "growth at 10 µM", "setting": "[1]", "result": 97, "unit": "%"}]}, {"smiles": "c1ccc(CCOc2cccc(-c3nc4sccn4c3-c3ccccc3)c2)cc1", "values": [{"measurement": "growth at 10 µM", "setting": "[1]", "result": 98.9, "unit": "%"}]}, {"smiles": "c1ccc(COc2cccc(-c3nc4sccn4c3-c3ccccc3)c2)cc1", "values": [{"measurement": "growth at 10 µM", "setting": "[1]", "result": 99.3, "unit": "%"}]}, {"smiles": "CS(=O)(=O)c1nccc(-c2c(-c3cccc(OCCc4ccccc4)c3)nc3sccn23)n1", "values": [{"measurement": "growth at 10 µM", "setting": "[1]", "result": 96, "unit": "%"}]}, {"smiles": "CS(=O)(=O)c1nccc(-c2c(-c3cccc(OCCc4ccc(F)cc4)c3)nc3sccn23)n1", "values": [{"measurement": "growth at 10 µM", "setting": "[1]", "result": 91.6, "unit": "%"}]}, {"smiles": "CS(=O)(=O)c1cccc(-c2c(-c3cccc(OCc4ccc(F)cc4)c3)nc3sccn23)c1", "values": [{"measurement": "growth at 10 µM", "setting": "[1]", "result": 74.7, "unit": "%"}]}, {"smiles": "Oc1cccc(-c2nc3sccn3c2-c2ccccc2)c1", "values": [{"measurement": "growth at 10 µM", "setting": "[1]", "result": 94, "unit": "%"}]}, {"smiles": "CS(=O)(=O)c1nccc(-c2c(-c3cccc(O)c3)nc3sccn23)n1", "values": [{"measurement": "growth at 10 µM", "setting": "[1]", "result": 90, "unit": "%"}]}, {"smiles": "CS(=O)(=O)c1nccc(-c2c(-c3ccc(O)cc3)nc3sccn23)n1", "values": [{"measurement": "growth at 10 µM", "setting": "[1]", "result": 99.7, "unit": "%"}]}, {"smiles": "CS(=O)(=O)c1cccc(-c2c(-c3cccc(O)c3)nc3sccn23)c1", "values": [{"measurement": "growth at 10 µM", "setting": "[1]", "result": 99.2, "unit": "%"}]}, {"smiles": "CC(C)N(CCOc1cccc(-c2nc3sccn3c2-c2ccnc(S(C)(=O)=O)n2)c1)C(C)C", "values": [{"measurement": "growth at 10 µM", "setting": "[1]", "result": 81.8, "unit": "%"}]}, {"smiles": "Fc1ccc(CCOc2cccc(-c3nc4sccn4c3-c3ccncn3)c2)cc1", "values": [{"measurement": "growth at 10 µM", "setting": "[1]", "result": 96, "unit": "%"}]}, {"smiles": "Oc1cccc(-c2nc3sccn3c2-c2ccncn2)c1", "values": [{"measurement": "growth at 10 µM", "setting": "[1]", "result": 85.5, "unit": "%"}]}, {"smiles": "CS(=O)(=O)c1nccc(-c2c(-c3ccc(OCc4ccccc4)cc3)nc3sccn23)n1", "values": [{"measurement": "growth at 10 µM", "setting": "[1]", "result": 95.1, "unit": "%"}]}, {"smiles": "CS(=O)(=O)c1cccc(-c2c(-c3cccc(OCc4ccccc4)c3)nc3sccn23)c1", "values": [{"measurement": "growth at 10 µM", "setting": "[1]", "result": 87.6, "unit": "%"}]}, {"smiles": "CS(=O)(=O)c1nccc(-c2c(-c3cccc(OCc4ccc(F)cc4)c3)nc3occn23)n1", "values": [{"measurement": "growth at 10 µM", "setting": "[1]", "result": 89.7, "unit": "%"}]}, {"smiles": "CS(=O)(=O)c1nccc(-c2c(-c3cccc(OCc4ccccc4)c3)nc3occn23)n1", "values": [{"measurement": "growth at 10 µM", "setting": "[1]", "result": 101, "unit": "%"}]}, {"smiles": "COc1cccc(-c2nc3sccn3c2-c2ccccc2)c1", "values": [{"measurement": "growth at 10 µM", "setting": "[1]", "result": 96.6, "unit": "%"}]}, {"smiles": "CS(=O)(=O)c1nccc(-c2c(-c3cccc(OCC(=O)c4ccccc4)c3)nc3sccn23)n1", "values": [{"measurement": "growth at 10 µM", "setting": "[1]", "result": 94, "unit": "%"}]}, {"smiles": "CN(C)CCOc1cccc(-c2nc3sccn3c2-c2ccnc(S(C)(=O)=O)n2)c1", "values": [{"measurement": "growth at 10 µM", "setting": "[1]", "result": 93.7, "unit": "%"}]}, {"smiles": "CS(=O)(=O)c1nccc(-c2c(-c3ccc(OCCN4CCOCC4)cc3)nc3sccn23)n1", "values": [{"measurement": "growth at 10 µM", "setting": "[1]", "result": 101, "unit": "%"}]}, {"smiles": "CS(=O)(=O)c1nccc(-c2c(-c3ccc(OCCN4CCCC4)cc3)nc3sccn23)n1", "values": [{"measurement": "growth at 10 µM", "setting": "[1]", "result": 101, "unit": "%"}]}, {"smiles": "O=C(COc1cccc(-c2nc3sccn3c2-c2ccccc2)c1)c1ccccc1", "values": [{"measurement": "growth at 10 µM", "setting": "[1]", "result": 84.6, "unit": "%"}]}, {"smiles": "COc1cccc(-c2nc3occn3c2-c2ccnc(S(C)(=O)=O)n2)c1", "values": [{"measurement": "growth at 10 µM", "setting": "[1]", "result": 96, "unit": "%"}]}, {"smiles": "CS(=O)(=O)c1cccc(-c2c(-c3cccc(OCC(=O)c4ccccc4)c3)nc3sccn23)c1", "values": [{"measurement": "growth at 10 µM", "setting": "[1]", "result": 91, "unit": "%"}]}, {"smiles": "COc1cccc(-c2nc3sccn3c2-c2cccc(S(C)(=O)=O)c2)c1", "values": [{"measurement": "growth at 10 µM", "setting": "[1]", "result": 99.8, "unit": "%"}]}]}
